Measurements as given in US20240116988A1, “ANTI-ROR1 MACROCYCLIC PEPTIDES AND COMPOSITIONS” (BRISTOL-MYERS SQUIBB COMPANY, priority 2022, published 2024).
Like-named read-outs stand apart in the source and are kept apart here. Positions of bridges follow the written chain, without caps; N, C: chain ends. Non-standard residues stand in square brackets, D forms with d. Residues, ends and D or L forms follow the SMILES beside them. NMeF = CN[C@@H](Cc1ccccc1)C(=O)O

Molecular target: T1, human ROR1 (Homo sapiens, UniProt Q01973)
T1 construct: host or cells: HEK 293T cells, Tet-on system induced with doxycycline
T1 sequence (Q01973 30-937): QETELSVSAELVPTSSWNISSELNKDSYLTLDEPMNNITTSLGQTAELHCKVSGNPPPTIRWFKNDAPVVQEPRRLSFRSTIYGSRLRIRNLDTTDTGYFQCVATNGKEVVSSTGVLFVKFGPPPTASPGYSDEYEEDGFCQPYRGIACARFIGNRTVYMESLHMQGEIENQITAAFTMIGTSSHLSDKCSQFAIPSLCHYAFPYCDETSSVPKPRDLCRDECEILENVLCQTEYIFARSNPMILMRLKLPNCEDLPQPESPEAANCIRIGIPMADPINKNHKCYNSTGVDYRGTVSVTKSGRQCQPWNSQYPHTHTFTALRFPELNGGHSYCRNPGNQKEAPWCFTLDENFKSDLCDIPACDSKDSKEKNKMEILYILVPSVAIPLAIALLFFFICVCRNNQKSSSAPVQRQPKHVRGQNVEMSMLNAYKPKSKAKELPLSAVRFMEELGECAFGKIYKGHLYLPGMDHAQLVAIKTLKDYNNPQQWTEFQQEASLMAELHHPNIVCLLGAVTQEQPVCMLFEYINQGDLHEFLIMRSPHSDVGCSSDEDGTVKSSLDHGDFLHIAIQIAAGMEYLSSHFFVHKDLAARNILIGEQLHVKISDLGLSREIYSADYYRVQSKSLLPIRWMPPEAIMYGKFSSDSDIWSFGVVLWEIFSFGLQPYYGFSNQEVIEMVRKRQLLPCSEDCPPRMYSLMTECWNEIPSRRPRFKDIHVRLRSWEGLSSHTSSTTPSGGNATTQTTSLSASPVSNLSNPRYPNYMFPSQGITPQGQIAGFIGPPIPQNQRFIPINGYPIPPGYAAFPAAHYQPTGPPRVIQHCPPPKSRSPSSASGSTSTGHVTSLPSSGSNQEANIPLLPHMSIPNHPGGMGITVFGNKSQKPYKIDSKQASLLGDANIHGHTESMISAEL
Assay: ROR1 high content cell-based binding assay
Details: read-out: ROR1 Binding 293T Human HC Cell Based Assay IC50
Method: ROR1 high content cell-based binding assay: Human embryonic kidney 293T cells (293T) expressing human ROR1 with Tet-on system by doxycycline were used (Arctic-488134) for the assessment of inhibition of the binding of fluorescently-labeled competing peptide (“Probe”) that specifically binds to human ROR1. […] Cryopreserved vials were thawed in a 37° C. water bath. Cells were washed in assay culture media [DMEM (Life Technologies Inc. Cat. […] Cat. No. 15140-122) and […] dox] and diluted 1.0×10^5 cells/mL. Cells were seeded into PDL-coated 384 well plates (BD Falcon Cat. No. 356663) at 2,000 cells/20 μL. Plates were allowed to incubate for 10 minutes at room temperature and then transferred to a 37° C./5% CO2 incubator for overnight incubation. The next day, 125 nL of the test compound was added using an ECHO followed by the addition of 5 μL/well of 5-FAM-labeled probe to cells at a final concentration of 30 nM. Sample were incubated for 1 hour at 37° C. for 1 hour, followed by 3 washes in […] of dPBS. Cells were fixed by adding 8% (w/v) formaldehyde (Sigma Cat. No. 252549), 20 μg/mL Hoechst (Thermo Scientific Cat. No. 62249) in PBS for 20 minutes at room temperature. The plates were washed 3 more times in dPBS and 15 μl of PBS was left in the wells following the last wash. The plates were sealed, and data was using obtained using a CellInsight NXT High Content Screening Platform IC903000 (Thermo Scientific).

Row | IC50 [nM] | IC50 (293T cells expressing human ROR1 (Tet-on, doxycycline), inhibition of binding of 5-FAM-labeled probe (Example 1300) at 30 nM, 1 hour at 37° C.) [nM] | SMILES
1 | 27 | – | CC(C)C[C@@H]1NC(=O)[C@H](Cc2ccc(O)cc2)NC(=O)[C@H](Cc2ccccc2)NC(=O)CSC[C@@H](C(=O)NCC(N)=O)NC(=O)[C@H](CC(C)C)NC(=O)[C@H](Cc2ccccc2)N(C)C(=O)[C@H](Cc2ccc(O)cc2)NC(=O)[C@H](Cc2c[nH]c3ccccc23)NC(=O)CNC(=O)[C@H](CCCCN)NC(=O)[C@H](Cc2ccc(O)cc2)NC(=O)[C@H](C(C)C)NC1=O [Example 1019] ({CH2CO}-FYLVYKGWY[NMeF]LCG-NH2; thioether N-12)
2 | 18 | – | CC(C)C[C@@H]1NC(=O)[C@H](Cc2ccc(O)cc2)NC(=O)[C@H](Cc2ccccc2)NC(=O)CSC[C@@H](C(=O)NCC(N)=O)NC(=O)[C@H](CC(C)C)NC(=O)[C@H](Cc2ccccc2)N(C)C(=O)[C@H](Cc2ccc(O)cc2)NC(=O)[C@H](Cc2c[nH]c3ccccc23)NC(=O)CNC(=O)[C@H](C)NC(=O)[C@H](Cc2ccc(O)cc2)NC(=O)[C@H](C(C)C)NC1=O [Example 1020] ({CH2CO}-FYLVYAGWY[NMeF]LCG-NH2; thioether N-12)
3 | 5 | – | CC(C)C[C@@H]1NC(=O)[C@H](Cc2ccc(O)cc2)NC(=O)[C@H](Cc2ccccc2)NC(=O)CSC[C@@H](C(=O)NCC(N)=O)NC(=O)[C@H](CC(C)C)NC(=O)[C@H](Cc2ccccc2)N(C)C(=O)[C@H](Cc2ccc(O)cc2)NC(=O)[C@H](Cc2c[nH]c3ccccc23)NC(=O)CNC(=O)[C@H](CC(N)=O)NC(=O)[C@H](Cc2ccc(O)cc2)NC(=O)[C@H](C(C)C)NC1=O [Example 1021] ({CH2CO}-FYLVYNGWY[NMeF]LCG-NH2; thioether N-12)
4 | 34 | – | CC(C)C[C@@H]1NC(=O)[C@H](Cc2ccc(O)cc2)NC(=O)[C@H](Cc2ccccc2)NC(=O)CSC[C@@H](C(=O)NCC(N)=O)NC(=O)[C@H](CC(C)C)NC(=O)[C@H](Cc2ccccc2)N(C)C(=O)[C@H](Cc2ccc(O)cc2)NC(=O)[C@H](Cc2c[nH]c3ccccc23)NC(=O)CNC(=O)CNC(=O)[C@H](Cc2ccc(O)cc2)NC(=O)[C@H](C(C)C)NC1=O [Example 1022] ({CH2CO}-FYLVYGGWY[NMeF]LCG-NH2; thioether N-12)
5 | 79 | – | CC(C)C[C@@H]1NC(=O)[C@H](Cc2ccc(O)cc2)NC(=O)[C@H](Cc2ccccc2)NC(=O)CSC[C@@H](C(=O)NCC(N)=O)NC(=O)[C@H](CC(C)C)NC(=O)[C@H](Cc2ccccc2)N(C)C(=O)[C@H](Cc2ccc(O)cc2)NC(=O)[C@H](Cc2c[nH]c3ccccc23)NC(=O)CNC(=O)[C@H](CO)NC(=O)[C@H](CCCNC(=N)N)NC(=O)[C@H](C(C)C)NC1=O [Example 1023] ({CH2CO}-FYLVRSGWY[NMeF]LCG-NH2; thioether N-12)
6 | 620 | – | CC(C)C[C@@H]1NC(=O)[C@H](Cc2ccc(O)cc2)NC(=O)[C@H](Cc2ccccc2)NC(=O)CSC[C@@H](C(=O)NCC(N)=O)NC(=O)[C@H](CC(C)C)NC(=O)[C@H](Cc2ccccc2)N(C)C(=O)[C@H](Cc2ccc(O)cc2)NC(=O)[C@H](Cc2c[nH]c3ccccc23)NC(=O)CNC(=O)[C@H](CO)NC(=O)[C@H](CC(N)=O)NC(=O)[C@H](C(C)C)NC1=O [Example 1024] ({CH2CO}-FYLVNSGWY[NMeF]LCG-NH2; thioether N-12)
7 | 365 | – | CC(C)C[C@@H]1NC(=O)[C@H](Cc2ccc(O)cc2)NC(=O)[C@H](Cc2ccccc2)NC(=O)CSC[C@@H](C(=O)NCC(N)=O)NC(=O)[C@H](CC(C)C)NC(=O)[C@H](Cc2ccccc2)N(C)C(=O)[C@H](Cc2ccc(O)cc2)NC(=O)[C@H](Cc2c[nH]c3ccccc23)NC(=O)CNC(=O)[C@H](CO)NC(=O)CNC(=O)[C@H](C(C)C)NC1=O [Example 1025] ({CH2CO}-FYLVGSGWY[NMeF]LCG-NH2; thioether N-12)
8 | 59 | – | CC(C)C[C@@H]1NC(=O)[C@H](Cc2ccc(O)cc2)NC(=O)[C@H](Cc2ccccc2)NC(=O)CSC[C@@H](C(=O)NCC(N)=O)NC(=O)[C@H](CC(C)C)NC(=O)[C@H](Cc2ccccc2)N(C)C(=O)[C@H](Cc2ccc(O)cc2)NC(=O)[C@H](Cc2c[nH]c3ccccc23)NC(=O)CNC(=O)[C@H](CO)NC(=O)[C@H](CO)NC(=O)[C@H](C(C)C)NC1=O [Example 1026] ({CH2CO}-FYLVSSGWY[NMeF]LCG-NH2; thioether N-12)
9 | 870 | – | CC(C)C[C@@H]1NC(=O)[C@H](Cc2ccc(O)cc2)NC(=O)[C@H](Cc2ccccc2)NC(=O)CSC[C@@H](C(=O)NCC(N)=O)NC(=O)[C@H](CC(C)C)NC(=O)[C@H](Cc2ccccc2)N(C)C(=O)[C@H](Cc2ccc(O)cc2)NC(=O)[C@H](Cc2c[nH]c3ccccc23)NC(=O)CNC(=O)[C@H](CO)NC(=O)[C@H](C)NC(=O)[C@H](C(C)C)NC1=O [Example 1027] ({CH2CO}-FYLVASGWY[NMeF]LCG-NH2; thioether N-12)
10 | – | 10 | CC(C)C[C@@H]1NC(=O)[C@H](Cc2ccc(O)cc2)NC(=O)[C@H](Cc2ccccc2)NC(=O)CSC[C@@H](C(=O)NCC(N)=O)NC(=O)[C@H](CC(C)C)NC(=O)[C@H](Cc2ccccc2)N(C)C(=O)[C@H](Cc2ccc(O)cc2)NC(=O)[C@H](Cc2c[nH]c3ccccc23)NC(=O)CNC(=O)[C@H](CCC(=O)O)NC(=O)[C@H](Cc2ccc(O)cc2)NC(=O)[C@H](C(C)C)NC1=O [Example 1028] ({CH2CO}-FYLVYEGWY[NMeF]LCG-NH2; thioether N-12)
11 | 255 | – | CC(C)C[C@@H]1NC(=O)[C@H](Cc2ccc(O)cc2)NC(=O)[C@H](Cc2ccccc2)NC(=O)CSC[C@@H](C(=O)NCC(N)=O)NC(=O)[C@H](CC(C)C)NC(=O)[C@H](Cc2ccccc2)N(C)C(=O)[C@H](Cc2ccc(O)cc2)NC(=O)[C@H](Cc2c[nH]c3ccccc23)NC(=O)CNC(=O)[C@H](CO)NC(=O)[C@H](CCCCN)NC(=O)[C@H](C(C)C)NC1=O [Example 1029] ({CH2CO}-FYLVKSGWY[NMeF]LCG-NH2; thioether N-12)
12 | 275 | – | CC(C)C[C@@H]1NC(=O)[C@H](Cc2ccc(O)cc2)NC(=O)[C@H](Cc2ccccc2)NC(=O)CSC[C@@H](C(=O)NCC(N)=O)NC(=O)[C@H](CC(C)C)NC(=O)[C@H](Cc2ccccc2)N(C)C(=O)[C@H](Cc2ccc(O)cc2)NC(=O)[C@H](Cc2c[nH]c3ccccc23)NC(=O)CNC(=O)[C@H](CO)NC(=O)[C@H](Cc2cnc[nH]2)NC(=O)[C@H](C(C)C)NC1=O [Example 1030] ({CH2CO}-FYLVHSGWY[NMeF]LCG-NH2; thioether N-12)
13 | 214 | – | CC(C)C[C@@H]1NC(=O)[C@H](Cc2ccc(O)cc2)NC(=O)[C@H](Cc2ccccc2)NC(=O)CSC[C@@H](C(=O)NCC(N)=O)NC(=O)[C@H](CC(C)C)NC(=O)[C@H](Cc2ccccc2)N(C)C(=O)[C@H](Cc2ccc(O)cc2)NC(=O)[C@H](Cc2c[nH]c3ccccc23)NC(=O)CNC(=O)[C@H](CO)NC(=O)[C@H](CCC(N)=O)NC(=O)[C@H](C(C)C)NC1=O [Example 1031] ({CH2CO}-FYLVQSGWY[NMeF]LCG-NH2; thioether N-12)
14 | 392 | – | CC(C)C[C@@H]1NC(=O)[C@H](Cc2ccc(O)cc2)NC(=O)[C@H](Cc2ccccc2)NC(=O)CSC[C@@H](C(=O)NCC(N)=O)NC(=O)[C@H](CC(C)C)NC(=O)[C@H](Cc2ccccc2)N(C)C(=O)[C@H](Cc2ccc(O)cc2)NC(=O)[C@H](Cc2c[nH]c3ccccc23)NC(=O)CNC(=O)CNC(=O)[C@H](CCCNC(=N)N)NC(=O)[C@H](C(C)C)NC1=O [Example 1032] ({CH2CO}-FYLVRGGWY[NMeF]LCG-NH2; thioether N-12)
15 | 768 | – | CC(C)C[C@@H]1NC(=O)[C@H](Cc2ccc(O)cc2)NC(=O)[C@H](Cc2ccccc2)NC(=O)CSC[C@@H](C(=O)NCC(N)=O)NC(=O)[C@H](CC(C)C)NC(=O)[C@H](Cc2ccccc2)N(C)C(=O)[C@H](Cc2ccc(O)cc2)NC(=O)[C@H](Cc2c[nH]c3ccccc23)NC(=O)CNC(=O)[C@H](CCCNC(=N)N)NC(=O)CNC(=O)[C@H](C(C)C)NC1=O [Example 1033] ({CH2CO}-FYLVGRGWY[NMeF]LCG-NH2; thioether N-12)
16 | 246 | – | CC(C)C[C@@H]1NC(=O)[C@H](Cc2ccc(O)cc2)NC(=O)[C@H](Cc2ccccc2)NC(=O)CSC[C@@H](C(=O)NCC(N)=O)NC(=O)[C@H](CC(C)C)NC(=O)[C@H](Cc2ccccc2)N(C)C(=O)[C@H](Cc2ccc(O)cc2)NC(=O)[C@H](Cc2c[nH]c3ccccc23)NC(=O)CNC(=O)[C@H](CO)NC(=O)[C@H](C(C)C)NC(=O)[C@H](C(C)C)NC1=O [Example 1034] ({CH2CO}-FYLVVSGWY[NMeF]LCG-NH2; thioether N-12)
17 | 59 | – | CC(C)C[C@@H]1NC(=O)[C@H](Cc2ccc(O)cc2)NC(=O)[C@H](Cc2ccccc2)NC(=O)CSC[C@@H](C(=O)NCC(N)=O)NC(=O)[C@H](CC(C)C)NC(=O)[C@H](Cc2ccccc2)N(C)C(=O)[C@H](Cc2ccc(O)cc2)NC(=O)[C@H](Cc2c[nH]c3ccccc23)NC(=O)CNC(=O)[C@H](CO)NC(=O)[C@H](Cc2ccccc2)NC(=O)[C@H](C(C)C)NC1=O [Example 1035] ({CH2CO}-FYLVFSGWY[NMeF]LCG-NH2; thioether N-12)
